Results reported in patent publication US11793849B2, “Method of Chinese herbal medicine extract used for treating multiple diseases caused by drug resistant bacteria infection” (priority 2016, dated 2023).
Like-named read-outs stand apart in the source and are kept apart here.

System: MDRAB
Assay: Checkerboard assay (combined-use MIC, FIC)
Assay type: cell-based, Acinetobacter baumannii
Conditions: for FIC, all strains / MIC50 of the antibiotic after combined use / MIC90 of the antibiotic after combined use / reduction of the antibiotic's MIC50 vs single use / reduction of the antibiotic's MIC90 vs single use / share of strains with FIC ≤ 0.5: 20 MDRABs; for MIC: Acinetobacter baumannii, read-out: single-use MIC
Procedure: Test methods of the sensibilization effects of the test product to similar antibiotics: it is operated by referring to a checkerboard assay recommended by NCCLS.
The checkerboard assay is performed in a 96-pore sterile culture plate.
Calculation of a Fractional Inhibitory Concentration (FIC): FIC=S20b combined-use MIC/S20b single-use MIC+antibiotic combined-use MIC/antibiotic single-use MIC. By calculating the FIC, the combined antibacterial interaction between the EA and the antibiotic is evaluated, with synergistic effect for FIC≤0.5, additive effect for 0.5<FIC≤1, indifferent effect for 1<FIC≤2 and antagonistic effect for FIC>2. According to a sterile growth pore, the optimum concentration ratio between the EA and the antibiotic is founded out. At last, the effect of the EA to strengthen the efficacy of the antibiotic is evaluated.

[1] = antibiotic with 60% ethanol extract
[2] = antibiotic with 95% ethanol extract
[3] = antibiotic with EA (10% ethanol extract)
[4] = antibiotic with EA (water extract)

C[C@@H](O)[C@H]1C(=O)N2C(C(=O)O)=C(SCCN=CN)C[C@H]12 [IMP, imipenem]
45%: share of strains with FIC ≤ 0.5 [3]
32 µg/mL: MIC (strain A2, EA=60% ethanol extract) | MIC (strain A2, EA=95% ethanol extract) | MIC (strain A3, EA=60% ethanol extract) | MIC (strain A3, EA=95% ethanol extract) | MIC (strain A5 (printed AS in tables A43, A45), EA=95% ethanol extract) | MIC (strain A5, EA=60% ethanol extract) | MIC (strain A6, EA=60% ethanol extract) | MIC (strain A6, EA=95% ethanol extract) | MIC (strain A7, EA=60% ethanol extract) | MIC (strain A7, EA=95% ethanol extract) | MIC (strain A8, EA=60% ethanol extract) | MIC (strain A8, EA=95% ethanol extract) | MIC (strain A9, EA=60% ethanol extract) | MIC (strain A9, EA=95% ethanol extract) | MIC (strain A11, EA=60% ethanol extract) | MIC (strain A11, EA=95% ethanol extract) | MIC (strain A12, EA=60% ethanol extract) | MIC (strain A12, EA=95% ethanol extract) | MIC (strain A13, EA=60% ethanol extract) | MIC (strain A13, EA=95% ethanol extract) | MIC (strain A14, EA=60% ethanol extract) | MIC (strain A14, EA=95% ethanol extract) | MIC (strain A15, EA=60% ethanol extract) | MIC (strain A15, EA=95% ethanol extract) | MIC (strain A16, EA=60% ethanol extract) | MIC (strain A16, EA=95% ethanol extract) | MIC (strain A18, EA=60% ethanol extract) | MIC (strain A18, EA=95% ethanol extract) | MIC (strain A19, EA=60% ethanol extract) | MIC (strain A19, EA=95% ethanol extract) | MIC (strain A20, EA=60% ethanol extract) | MIC (strain A20, EA=95% ethanol extract)
75%: reduction of the antibiotic's MIC50 vs single use [1] | reduction of the antibiotic's MIC50 vs single use [2] | reduction of the antibiotic's MIC50 vs single use [3] | reduction of the antibiotic's MIC50 vs single use [4]
1 µg/mL: MIC (strain A1, EA=60% ethanol extract) | MIC (strain A1, EA=95% ethanol extract) | combined-use MIC (strain A4, EA (water extract) with IMP)
70%: share of strains with FIC ≤ 0.5 [1]
35%: share of strains with FIC ≤ 0.5 [4]
16 µg/mL: MIC90 of the antibiotic after combined use [1] | MIC90 of the antibiotic after combined use [2] | MIC90 of the antibiotic after combined use [3] | MIC90 of the antibiotic after combined use [4] | MIC (strain A10, EA=60% ethanol extract) | MIC (strain A10, EA=95% ethanol extract) | MIC (strain A17, EA=60% ethanol extract) | MIC (strain A17, EA=95% ethanol extract) | combined-use MIC (strain A2, EA (water extract) with IMP) | combined-use MIC (strain A3, EA (water extract) with IMP) | combined-use MIC (strain A5, EA (water extract) with IMP) | combined-use MIC (strain A6, EA (60% ethanol extract) + IMP combined) | combined-use MIC (strain A6, EA (95% ethanol extract) + IMP combined) | combined-use MIC (strain A6, EA (water extract) with IMP) | combined-use MIC (strain A7, EA (60% ethanol extract) + IMP combined) | combined-use MIC (strain A7, EA (95% ethanol extract) + IMP combined) | combined-use MIC (strain A7, EA (water extract) with IMP) | combined-use MIC (strain A8, EA (10% ethanol extract) with IMP) | combined-use MIC (strain A8, EA (60% ethanol extract) + IMP combined) | combined-use MIC (strain A8, EA (95% ethanol extract) + IMP combined) | combined-use MIC (strain A8, EA (water extract) with IMP) | combined-use MIC (strain A9, EA (water extract) with IMP) | combined-use MIC (strain A12, EA (water extract) with IMP) | combined-use MIC (strain A13, EA (water extract) with IMP) | combined-use MIC (strain A14, EA (10% ethanol extract) with IMP) | combined-use MIC (strain A18, EA (10% ethanol extract) with IMP)
55%: share of strains with FIC ≤ 0.5 [2]
2 µg/mL: combined-use MIC (strain A17, EA (60% ethanol extract) + IMP combined) | combined-use MIC (strain A17, EA (95% ethanol extract) + IMP combined) | combined-use MIC (strain A17, EA (water extract) with IMP)
8 µg/mL: MIC50 of the antibiotic after combined use [1] | MIC50 of the antibiotic after combined use [2] | MIC50 of the antibiotic after combined use [3] | MIC50 of the antibiotic after combined use [4] | MIC (strain A4, EA=60% ethanol extract) | MIC (strain A4, EA=95% ethanol extract) | combined-use MIC (strain A2, EA (10% ethanol extract) with IMP) | combined-use MIC (strain A2, EA (60% ethanol extract) + IMP combined) | combined-use MIC (strain A2, EA (95% ethanol extract) + IMP combined) | combined-use MIC (strain A3, EA (10% ethanol extract) with IMP) | combined-use MIC (strain A3, EA (60% ethanol extract) + IMP combined) | combined-use MIC (strain A3, EA (95% ethanol extract) + IMP combined) | combined-use MIC (strain A4, EA (10% ethanol extract) with IMP) | combined-use MIC (strain A5, EA (10% ethanol extract) with IMP) | combined-use MIC (strain A5, EA (60% ethanol extract) + IMP combined) | combined-use MIC (strain A7, EA (10% ethanol extract) with IMP) | combined-use MIC (strain A9, EA (10% ethanol extract) with IMP) | combined-use MIC (strain A10, EA (10% ethanol extract) with IMP) | combined-use MIC (strain A10, EA (60% ethanol extract) + IMP combined) | combined-use MIC (strain A10, EA (95% ethanol extract) + IMP combined) | combined-use MIC (strain A10, EA (water extract) with IMP) | combined-use MIC (strain A11, EA (10% ethanol extract) with IMP) | combined-use MIC (strain A11, EA (water extract) with IMP) | combined-use MIC (strain A12, EA (10% ethanol extract) with IMP) | combined-use MIC (strain A12, EA (60% ethanol extract) + IMP combined) | combined-use MIC (strain A12, EA (95% ethanol extract) + IMP combined) | combined-use MIC (strain A13, EA (10% ethanol extract) with IMP) | combined-use MIC (strain A13, EA (60% ethanol extract) + IMP combined) | combined-use MIC (strain A13, EA (95% ethanol extract) + IMP combined) | combined-use MIC (strain A14, EA (95% ethanol extract) + IMP combined) | combined-use MIC (strain A15, EA (10% ethanol extract) with IMP) | combined-use MIC (strain A15, EA (95% ethanol extract) + IMP combined) | combined-use MIC (strain A16, EA (10% ethanol extract) with IMP) | combined-use MIC (strain A16, EA (60% ethanol extract) + IMP combined) | combined-use MIC (strain A16, EA (95% ethanol extract) + IMP combined) | combined-use MIC (strain A16, EA (water extract) with IMP) | combined-use MIC (strain A18, EA (60% ethanol extract) + IMP combined) | combined-use MIC (strain A18, EA (95% ethanol extract) + IMP combined) | combined-use MIC (strain A18, EA (water extract) with IMP) | combined-use MIC (strain A19, EA (10% ethanol extract) with IMP) | combined-use MIC (strain A19, EA (60% ethanol extract) + IMP combined) | combined-use MIC (strain A19, EA (95% ethanol extract) + IMP combined) | combined-use MIC (strain A19, EA (water extract) with IMP) | combined-use MIC (strain A20, EA (10% ethanol extract) with IMP) | combined-use MIC (strain A20, EA (60% ethanol extract) + IMP combined) | combined-use MIC (strain A20, EA (95% ethanol extract) + IMP combined) | combined-use MIC (strain A20, EA (water extract) with IMP) | combined-use MIC (strain AS, EA (95% ethanol extract) + IMP combined)
0.5 µg/mL: combined-use MIC (strain A1, EA (10% ethanol extract) with IMP) | combined-use MIC (strain A1, EA (60% ethanol extract) + IMP combined) | combined-use MIC (strain A1, EA (95% ethanol extract) + IMP combined) | combined-use MIC (strain A1, EA (water extract) with IMP) | combined-use MIC (strain A4, EA (60% ethanol extract) + IMP combined) | combined-use MIC (strain A4, EA (95% ethanol extract) + IMP combined)
50%: reduction of the antibiotic's MIC90 vs single use [1] | reduction of the antibiotic's MIC90 vs single use [2] | reduction of the antibiotic's MIC90 vs single use [3] | reduction of the antibiotic's MIC90 vs single use [4]
4 µg/mL: combined-use MIC (strain A6, EA (10% ethanol extract) with IMP) | combined-use MIC (strain A9, EA (60% ethanol extract) + IMP combined) | combined-use MIC (strain A9, EA (95% ethanol extract) + IMP combined) | combined-use MIC (strain A11, EA (60% ethanol extract) + IMP combined) | combined-use MIC (strain A11, EA (95% ethanol extract) + IMP combined) | combined-use MIC (strain A14, EA (60% ethanol extract) + IMP combined) | combined-use MIC (strain A14, EA (water extract) with IMP) | combined-use MIC (strain A15, EA (60% ethanol extract) + IMP combined) | combined-use MIC (strain A15, EA (water extract) with IMP) | combined-use MIC (strain A17, EA (10% ethanol extract) with IMP)
≤ 1: FIC, all strains [1] | FIC, all strains [2] | FIC, all strains [3] | FIC, all strains [4]
